{
  "source": "patent US4108987A",
  "about": "“Cyclic hexapeptides” (Merck & Co., Inc., priority 1977, dated 1978)",
  "tested_on": "rumen fluid which contained methane-producing bacteria and other rumen bacteria",
  "assay": "In vitro rumen fermentation test",
  "assay_type": "cell-based",
  "protocol": "Rumen fluid which contained methane-producing bacteria and other rumen bacteria was produced in a fermentor which was set up and maintained to simulate the conditions of a rumen.\nThe test was carried out in a screw-cap tube which was sealed with a butyl rubber stopper. […] The air in the tube was replaced with a gas mixture of 97% nitrogen-3% hydrogen made free of oxygen by passage through a catalytic purifier. After incubation for 18 hours in a water bath shaker at 39° C., 0.5 ml. of the gas was removed through the stopper into the sample loop of a Fisher Gas Partitioner. The gas sample was partitioned, and the methane produced was compared to a standard gas mixture containing a known amount of methane. The incubation mixture was acidified with 4 ml. of 10% metaphosphoric acid and centrifuged. One μl. of the supernate was analyzed by gas-liquid chromatography. The volatile fatty acids were compared to a standard volatile fatty acid mixture containing known amounts of acetic, propionic, butyric and valeric acids. Appropriate controls were included.",
  "note": "Square brackets hold non-standard residues; d marks the D form. Peptide text beside a SMILES is read from it.",
  "data": [
    {"smiles": "O=C1N[C@H](Cc2ccccc2)C(=O)N2CCC[C@H]2C(=O)N[C@H](Cc2ccccc2)C(=O)N2CCC[C@H]2C(=O)N[C@H](Cc2ccccc2)C(=O)N2CCC[C@@H]12", "note": "[cyclo(Pro-D-Phe)3, Cyclo(Pro-D-Phe)3] (cyclo(P[dF]P[dF]P[dF]))", "values": [
      {"measurement": "CH4 (methane) produced", "setting": "250 μg./ml. of tested compound, incubation 18 hours at 39° C., gas partitioner", "value": "essentially eliminated"},
      {"measurement": "shift in VFA ratios", "setting": "250 μg./ml. of tested compound, incubation 18 hours at 39° C., gas-liquid chromatography", "value": "significant shift in VFA ratios favoring the longer chain acids"},
      {"measurement": "Valeric acid, μmols", "setting": "Treated 16 μg./ml., control 1.8", "value": 4.5, "unit": "μmols"},
      {"measurement": "Valeric acid, μmols %", "setting": "Treated 16 μg./ml., control 3.0", "value": 7.0, "unit": "μmols %"},
      {"measurement": "Butyric acid, μmols", "setting": "Treated 16 μg./ml., control 7.1", "value": 15.3, "unit": "μmols"},
      {"measurement": "Butyric acid, μmols %", "setting": "Treated 16 μg./ml., control 10.5", "value": 25.0, "unit": "μmols %"},
      {"measurement": "Propionic acid, μmols", "setting": "Treated 16 μg./ml., control 19.5", "value": 23.0, "unit": "μmols"},
      {"measurement": "Propionic acid, μmols %", "setting": "Treated 16 μg./ml., control 28.5", "value": 37.0, "unit": "μmols %"},
      {"measurement": "Acetic acid, μmols", "setting": "Treated 16 μg./ml., control 39.9", "value": 18.8, "unit": "μmols"},
      {"measurement": "Acetic acid, μmols %", "setting": "Treated 16 μg./ml., control 58.5", "value": 31.0, "unit": "μmols %"},
      {"measurement": "Total volatile fatty acids, μmols", "setting": "Treated 16 μg./ml., control 68.3", "value": 61.6, "unit": "μmols"},
      {"measurement": "production of VFAs (summary of tabulated data)", "setting": "in vitro rumen fermentation", "value": "effective in increasing the production of the VFAs, propionic, butyric and valeric at the expense of methane and acetate"}
    ]}
  ]
}
